1 compound from ChEMBL document CHEMBL1148172, “A New Diterpene from a Soft Coral, Sinularia dissecta” (J Nat Prod, 1993) can be followed below.

The assay has as its target T1, Acetylcholinesterase (Rattus norvegicus, UniProt P37136).
T1 sequence (P37136 whole entry): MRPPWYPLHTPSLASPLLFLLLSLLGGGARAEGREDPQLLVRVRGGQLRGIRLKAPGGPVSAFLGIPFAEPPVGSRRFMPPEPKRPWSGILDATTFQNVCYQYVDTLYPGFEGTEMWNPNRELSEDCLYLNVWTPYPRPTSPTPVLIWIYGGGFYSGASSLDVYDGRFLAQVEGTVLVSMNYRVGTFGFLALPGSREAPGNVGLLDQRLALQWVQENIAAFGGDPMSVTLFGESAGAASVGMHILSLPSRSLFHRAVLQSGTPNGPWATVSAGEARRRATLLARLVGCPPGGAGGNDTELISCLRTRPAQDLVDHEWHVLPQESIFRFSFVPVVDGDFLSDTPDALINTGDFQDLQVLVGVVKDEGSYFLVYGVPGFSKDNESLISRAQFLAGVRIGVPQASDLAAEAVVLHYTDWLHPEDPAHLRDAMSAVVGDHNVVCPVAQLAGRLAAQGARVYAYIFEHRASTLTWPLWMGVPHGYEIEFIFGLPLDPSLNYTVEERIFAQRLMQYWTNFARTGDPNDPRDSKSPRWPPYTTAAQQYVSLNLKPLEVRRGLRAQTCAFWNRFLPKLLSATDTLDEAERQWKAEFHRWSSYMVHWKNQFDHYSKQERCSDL
Kind of assay: Inhibition of Wistar rat brain AChE. The conditions noted are these: read-out: I50.

With `C=C(C)[C@H]1C/C=C(/C(=O)OC)C(O)C(=O)C[C@@](C)(O)CC2=CC(C(=O)OC)=C(C1)O2` (stereo partly specified), the IC50 was 63 µM.
